This note sets out measurements from patent publication US20250129021A1, “SMALL MOLECULE PROTEIN SYNTHESIS MODULATORS” (Interdict Bio, Inc., priority 2023, published 2025).

By IC50 is commonly meant the concentration needed to halve the response being measured.

What all share (format): biochemical
In one assay the test system is MYC. In words: In vitro transcription-translation (IVTT) assay, MYC reporter. As to conditions: HeLa S3 lysate, 2 hrs at 30° C. Summed up:
(§1)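 Reporter: mCherry, P2A, then 3×FLAG-target peptide-sfGFP fusion, IRES-initiated; HeLa S3 lysate IVTT; cpd dilutions 30 μM−0.1 μM half-log in 100% DMSO (dilution-plate conc); DNA added last; 2 h, 30° C; PBS quench.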

The next assay concerns CCND1. Nature of the assay: In vitro transcription-translation (IVTT) assay, CCND1 reporter. As to conditions: HeLa S3 lysate, sfGFP/mCherry ratio. Summed up:
as §1

The next assay deals with NFKB1. Nature of the assay: In vitro transcription-translation (IVTT) assay, NFKB1 reporter. As to conditions: HeLa S3 lysate, sfGFP/mCherry ratio. The protocol: In vitro transcription-translation assay setup: Each assay includes a master mix containing lysate and shared components, a 96-well plate containing compound titrations for testing, a 96-well DNA plate with reporter constructs to be tested, 96-well skirted PCR plates, and 96-well flat-bottom, black, fluorescent assay plates. Reaction materials setup: (A) Master mix—15 mL conical tube (3 mL of HeLa S3 Lysate described above; 0.6 mL of ThermoFisher Accessory Proteins (#88882); 1.2 ml of ThermoFisher Reaction Mix (#88882); 0.54 mL of nuclease-free Water); (B) 96-Well Master Mix+Compound Plate (Half-log dilutions (30 μM−0.1 μM) of 4 compounds of interest are prepared in 100% DMSO); 96-Well DNA Plate (Five DNA constructs are plated into single columns within the plate. Row 1 of the column contains nuclease free H2O, all other wells contain 110 ng/μL plasmid DNA). Reactions are started by mixing 155 μL of master mix and 3.5 μL of compound serial dilutions, then 9.1 μL of master mix+compound mixture is aliquoted across 5 96-well plates. Reactions begin with final addition of 2 μL of DNA for a 11.1 μL reaction volume in each well. The entire plate is sealed, and incubated for 2 hrs at 30° C. After 2 hrs, quench the assay using 45 μL of PBS, and transfer 50 μL to a flat-bottom black microplate Quantify the sfGFP and mCherry signals from each well on each plate, taking 3 reads of each plate, and perform data analysis below.
In vitro transcription-translation assay data analysis: Each plate is read three times in channels for both sfGFP and mCherry signals. The average signal across these 3 reads is then calculated for further analysis. Control wells containing no DNA reporter are subtracted from reporter wells in the same column to remove auto-fluorescence of the lysate. Then, the ratio of sfGFP/mCherry is calculated per well, and these ratios are averaged across the triplicate experiments on the same plate. Finally, the ratio of each titration concentration is normalized to the no drug control to create the normalized stalling metric. The error on this measurement is determined by propagating error through the averaging and normalization steps. Values are plotted and fit for IC50 determination for each test sequence and titration of compound.

The subject of the next assay is BCL-2. Nature of the assay: In vitro transcription-translation (IVTT) assay, BCL-2 reporter. As to conditions: HeLa S3 lysate, sfGFP/mCherry ratio, 2 hrs at 30° C. An excerpt:
All reporter constructs have been cloned into the pT7CFE1-CHis plasmid (ThermoFisher #88860) using Gibson assembly procedures (NEB #E2611L). The parental pT7CFE1-CHis plasmid contains an EMCV IRES at the 5′UTR for translation initiation, a multiple-cloning site (MCS) for gene insertion, an optional C-terminal His-epitope tag, and polyA sequence in the 3′UTR to regulate mRNA stability. All reporters are designed to be inserted at the MCS to include a red fluorescent protein (mCherry), P2A self-cleaving peptide which releases the preceding mCherry protein product, and a fusion open reading frame containing a 3×FLAG epitope, a peptide sequence of interest (TEST), and green fluorescent protein (sfGFP).
Construct Plasmid Preparation: All plasmids are isolated from MACH1 cells (ThermoFisher) grown overnight in ampicillin-containing luria broth, and purified using ZymoPure Express Plasmid Midiprep Kit (Zymo Research). Constructs are sequenced verified and diluted to a working concentration of 110 ng/μL.
HeLa S3 Lysate Preparation: HeLa S3 cell pellets are acquired from Ipracell/Ipratech (Belgium) and shipped as 4 mL frozen cell pellets on dry ice for storage at −80° C. until use. The procedure for lysate preparation is as follows. Prepare 1× Lysis Buffer, cold and stored on ice:
Each preparation takes 8 cell pellets (4 ml packed volume each, approximately 1.0×10^9 cells per pellet). Thaw cell pellets from −80° C. on ice for 90 mins. Lay pellets horizontally on top of the ice and rotate every 30 mins to ensure even thawing. Once thawed, add 4 mL of cold lysis buffer to each pellet, and using a serological pipet, gently pipet up and down to break up clumps. Incubate resuspended cells in ice for an additional 30 mins (plunged into ice). During 30 min incubation, rinse and RNase-zap (Ambion) glass dounces (use loose pestle “A”), gently dry and place on ice until needed. Prepare RNase-free Eppendorf tubes for spinning and for batch storage. Add batch labels to 1.5-1.7 mL RNase-free microcentrifuge tubes (labeling scheme below). Each batch will have an extra 1.5-1.7 mL RNase-free microcentrifuge tube for 40 μL of lysate, label the top of this tube (labeling scheme below). After 30 min incubation, transfer all 8 mL of cell pellet to dounce. Cell lysis is complete after douncing 100 times. Aliquot cell lysis into 1.5-1.7 mL temporary-microcentrifuge tubes. Place tubes in centrifuge with “fins” out, and spin at 1,200×g for 5 mins. After the first spin use a 1 mL pipet to resuspend each tube and repeat spin. This acts as an additional lysis step, is more vigorous and increases lysate yield. During second spin get liquid N2 and a fresh conical tube on ice. After spin is complete, transfer supernatant (lysate) from microcentrifuge tubes into the 50 mL conical tube and keep on ice. Repeat steps 10-14 for all other cell pellets until completed. Once all cell lysate has been transferred to the 50 mL conical tube pipet to mix so the solution is homogenous. Transfer 1 mL of lysate into batch-labeled microcentrifuge tubes and flash freeze in liquid nitrogen. Be sure to pipet up and down to mix throughout transfer step. Place all tubes in the […] for long-term storage.
In vitro transcription-translation assay setup: Each assay includes a master mix containing lysate and shared components, a 96-well plate containing compound titrations for testing, a 96-well DNA plate with reporter constructs to be tested, 96-well skirted PCR plates, and 96-well flat-bottom, black, fluorescent assay plates. […]

The mark [1] stands for this setting: IVTT assay, MYC reporter, normalized sfGFP/mCherry ratio, half-log dilutions 30 μM-0.1 μM.

Turning to `O=C(NCC[C@@H]1C[C@H](C(F)(F)F)CN1)O[C@@H]1[C@@H](O)CN[C@@H]1Cc1ccc(-c2cnco2)cc1` [V192912, (2R,3S,4S)-4-hydroxy-2-{[4-(1,3-oxazol-5-yl)phenyl]methyl}pyrrolidin-3-yl N-{2-[(2S,4S)-4-(trifluoromethyl)pyrrolidin-2-yl]ethyl}carbamate], the IC50 in the assay with MYC (setting [1]), in the assay on CCND1 (IVTT assay) and in the assay on NFKB1 was less than 10 µM in each case.
Consider `O=C(NCCSC(F)(F)F)O[C@@H]1[C@@H](O)CN[C@@H]1Cc1ccc(-c2cnco2)cc1` [V192442, (2R,3S,4S)-4-hydroxy-2-{[4-(1,3-oxazol-5-yl)phenyl]methyl}pyrrolidin-3-yl N-{2-[(trifluoromethyl)sulfanyl]ethyl}carbamate], for which the IC50 in the assay with MYC (setting [1]), with CCND1 (IVTT assay) and with NFKB1 was less than 10 µM throughout.
On to `C[C@H]1CC[C@@H](CCNC(=O)O[C@@H]2[C@@H](O)CN[C@@H]2Cc2ccc(-c3cnco3)cc2)N1` [V192850, (2R,3S,4S)-4-hydroxy-2-{[4-(1,3-oxazol-5-yl)phenyl]methyl}pyrrolidin-3-yl N-{2-[(2S,5S)-5-methylpyrrolidin-2-yl]ethyl}carbamate], for which the half-maximal inhibitory concentration (IC50) with MYC (setting [1]), with CCND1 (IVTT assay) and in the assay on NFKB1 was less than 10 µM in each case.
Take `O=C(NCc1cccc(F)c1)O[C@@H]1[C@@H](O)CN[C@@H]1Cc1ccc(C(F)(F)F)cc1` [V192896, (2R,3S,4S)-4-hydroxy-2-{[4-(trifluoromethyl)phenyl]methyl}pyrrolidin-3-yl N-[(3-fluorophenyl)methyl]carbamate]: the 50% inhibitory concentration (IC50) in the assay with MYC (setting [1]), with CCND1 (IVTT assay) and in the assay with NFKB1 was less than 10 µM throughout.
Take `O=C(NCc1cncc(N2CCC2)c1)O[C@@H]1[C@@H](O)CN[C@@H]1Cc1ccc(-c2cnco2)cc1` [V192286, (2R,3S,4S)-4-hydroxy-2-{[4-(1,3-oxazol-5-yl)phenyl]methyl}pyrrolidin-3-yl N-{[5-(azetidin-1-yl)pyridin-3-yl]methyl}carbamate]: the half-maximal inhibitory concentration (IC50) with MYC (setting [1]), in the assay with CCND1 (IVTT assay) and in the assay with NFKB1 was less than 10 µM in each case.
Take `COc1ccc(C[C@H]2NC[C@H](O)[C@H]2OC(=O)NCCNC(=O)C2(N)CC2)cc1` [V187919, (2R,3S,4S)-4-hydroxy-2-[(4-methoxyphenyl)methyl]pyrrolidin-3-yl N-{2-[(1-aminocyclopropyl)formamido]ethyl}carbamate]: the half-inhibitory concentration (IC50) in the assay on MYC (sfGFP/mCherry ratio) is 20 to 30 µM; in the assay on CCND1 (2 hrs at 30° C.) it was greater than 30 µM; with BCL-2 it was greater than 30 µM.
In the case of `O=C(NCc1cccc(F)c1)O[C@@H]1[C@@H](O)CN[C@@H]1Cc1ccc(OCF)cc1` [V190507, (2R,3S,4S)-2-(4-(fluoromethoxy)benzyl)-4-hydroxypyrrolidin-3-yl (3-fluorobenzyl)carbamate], the 50% inhibitory concentration (IC50) in the assay with MYC (setting [1]), in the assay with CCND1 (IVTT assay) and in the assay on NFKB1 was less than 10 µM each time.
On to `O=C(NCC[C@@H]1CCCN1)O[C@@H]1[C@@H](O)CN[C@@H]1Cc1ccc(-c2ccns2)cc1` [V192331, (2R,3S,4S)-4-hydroxy-2-{[4-(1,2-thiazol-5-yl)phenyl]methyl}pyrrolidin-3-yl N-{2-[(2S)-pyrrolidin-2-yl]ethyl}carbamate], for which the IC50 in the assay on MYC (setting [1]), in the assay with CCND1 (IVTT assay) and in the assay on NFKB1 was less than 10 µM in each case.
In the case of “(2R,3S,4S)-2-{[2-fluoro-4-(1,3-oxazol-5-yl)phenyl]methyl}-4-hydroxypyrrolidin-3-ylN-[(3-fluorophenyl)methyl]carbamate [V192861]”, the IC50 with MYC (setting [1]), in the assay with CCND1 (IVTT assay) and in the assay with NFKB1 was less than 10 µM in each case.
`O=C(NCc1cccc(F)c1)O[C@@H]1[C@@H](O)CN[C@@H]1Cc1ccc(-c2cnc(N3CC(F)(F)C3)s2)cc1` [V192410, (2R,3S,4S)-2-({4-[2-(3,3-difluoroazetidin-1-yl)-1,3-thiazol-5-yl]phenyl}methyl)-4-hydroxypyrrolidin-3-yl N-[(3-fluorophenyl)methyl]carbamate]: the IC50 with MYC (setting [1]), in the assay with CCND1 (IVTT assay) and with NFKB1 was less than 10 µM in each case.
`O=C(NCC[C@@H]1CCNCC1(F)F)O[C@@H]1[C@@H](O)CN[C@@H]1Cc1ccc(-c2cnco2)cc1` [V192234, (2R,3S,4S)-4-hydroxy-2-{[4-(1,3-oxazol-5-yl)phenyl]methyl}pyrrolidin-3-yl N-{2-[(4S)-3,3-difluoropiperidin-4-yl]ethyl}carbamate]: the half-inhibitory concentration (IC50) with MYC (setting [1]), in the assay with CCND1 (IVTT assay) and in the assay with NFKB1 was less than 10 µM throughout.
As for “(2R,3S,4S)-2-(2,1,3-benzoxadiazol-5-ylmethyl)-4-hydroxypyrrolidin-3-ylN-[(3-fluorophenyl)methyl]carbamate [V192383]”, the IC50 with MYC (setting [1]), in the assay on CCND1 (IVTT assay) and in the assay on NFKB1 was less than 10 µM throughout.
Take `O=C(NCc1cccc(F)c1)O[C@@H]1[C@@H](O)CN[C@@H]1Cc1ccc(-c2cnco2)nc1` [V192862, (2R,3S,4S)-4-hydroxy-2-{[6-(1,3-oxazol-5-yl)pyridin-3-yl]methyl}pyrrolidin-3-yl N-[(3-fluorophenyl)methyl]carbamate]: the half-inhibitory concentration (IC50) in the assay with MYC (setting [1]), with CCND1 (IVTT assay) and in the assay on NFKB1 was less than 10 µM throughout.
Regarding `O=C(NCc1cccc(F)c1)O[C@@H]1[C@@H](O)CN[C@@H]1Cc1ccc(Oc2cncs2)cc1` [V192395, (2R,3S,4S)-4-hydroxy-2-{[4-(1,3-thiazol-5-yloxy)phenyl]methyl}pyrrolidin-3-yl N-[(3-fluorophenyl)methyl]carbamate], the half-inhibitory concentration (IC50) in the assay on MYC (setting [1]), in the assay on CCND1 (IVTT assay) and with NFKB1 was less than 10 µM each time.
Take `O=C(NCCC(O)C(F)(F)F)O[C@@H]1[C@@H](O)CN[C@@H]1Cc1ccc(-c2cnco2)cc1` (stereo partly drawn) [V192868, (2R,3S,4S)-4-hydroxy-2-{[4-(1,3-oxazol-5-yl)phenyl]methyl}pyrrolidin-3-yl N-(4,4,4-trifluoro-3-hydroxybutyl)carbamate]: the 50% inhibitory concentration (IC50) in the assay on MYC (setting [1]), in the assay with CCND1 (IVTT assay) and in the assay on NFKB1 was less than 10 µM in each case.
